Target: MoADH (His-tagged alcohol dehydrogenase from Moraxella sp. TAE123) (Moraxella sp. TAE123, UniProt Q8GIX7)
Design: gene adh
Conditions: turnover, fixed 35 mM ethanol, NAD+ varied 0-4.0 mM; pH 7.4; 10-53 °C

Chain of MoADH (His-tagged alcohol dehydrogenase from Moraxella sp. TAE123) (Q8GIX7 whole entry): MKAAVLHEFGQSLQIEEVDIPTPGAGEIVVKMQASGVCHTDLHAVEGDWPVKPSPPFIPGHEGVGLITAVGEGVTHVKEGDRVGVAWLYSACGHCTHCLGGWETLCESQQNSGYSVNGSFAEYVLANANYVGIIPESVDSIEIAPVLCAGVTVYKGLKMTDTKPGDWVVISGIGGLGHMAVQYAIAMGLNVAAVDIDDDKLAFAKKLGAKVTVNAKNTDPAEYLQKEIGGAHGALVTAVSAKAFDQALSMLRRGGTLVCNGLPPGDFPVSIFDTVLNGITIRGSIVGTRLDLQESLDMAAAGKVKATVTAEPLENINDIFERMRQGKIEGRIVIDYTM

CCO [ethanol] was tested, and the “NADH absorbance at 340 nm, microplate reader” value was “Ethanol oxidation reaction rates have been measured as a function of temperature”.
